How the values were obtained:
PC3 cells = test: NAMPT Cell Proliferation Assay (Cell Titer Glo; also performed in the presence of 0.3 mM nicotinamide mononucleotide); type: cell-based; settings: Homo sapiens, PC-3, 120 h, 5 days incubation, cell viability by Cell Titer Glo
Procedure: NAMPT Cell Proliferation Assay
PC3 cells were seeded in 96-well black plates (Corning #3904) at 500 cells/well in 90 μl of RPMI media containing 10% heat-inactivated FBS and incubated overnight at 37° C. and 5% CO2 to allow cells to attach to wells. The following day, test compounds were serially diluted in neat DMSO to 1000× final concentrations prior to dilution with RPMI media to 10× and 1% DMSO. Ten μL of the 10× compounds were then transferred to wells containing cells to produce a dose response of 10-fold dilutions from 10 μM to 1×10^−5 μM. Cells were incubated for 5 days at 37° C. and 5% CO2, then cell viability was measured using Cell Titer Glo reagent (Promega #G7571). Percent inhibition values were calculated and fitted to a sigmoidal dose response curves using Assay Explorer software to determine IC50s.

NAMPT = NAMPT (Homo sapiens, UniProt P43490); test: Time-Resolved Fluorescence Resonance Energy Transfer (TR-FRET) Binding Assay of NAMPT with PRPP; settings: 2 nM NAMPT, 2 nM probe, 200 uM PRPP and 2.5 mM ATP, equilibrated 16 hours
Procedure, shortened: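 Binding measured by TR-FRET after a 16-hour equilibration meant to permit enzymatic compound modification. Substrates present at 200 uM PRPP and 2.5 mM ATP, with 2 nM enzyme, 2 nM probe, 1 nM Tb-anti-His antibody and 2% DMSO final.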

[1] = biological target: NAMPT (human, recombinant, C-terminally His-tagged) (Homo sapiens, UniProt P43490); test: Time-Resolved Fluorescence Resonance Energy Transfer (TR-FRET) Binding Assay of NAMPT; settings: 6.8 nM NAMPT, 200 nM probe, equilibrated 3 hours, absence of substrates
Procedure, shortened: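 Probe displacement measured by TR-FRET (Ex 337 nm; 520/495 nm ratio) after 3 h room-temperature equilibration of compound with 6.8 nM His-tagged human NAMPT, 1 nM Tb-anti-His antibody and 200 nM Oregon Green 488 nicotinamide-site probe, pH 7.5 HEPES buffer, 2% DMSO. Control-normalized data fit four-parameter logistic for IC50.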

NAMPT, sequence (P43490 whole entry): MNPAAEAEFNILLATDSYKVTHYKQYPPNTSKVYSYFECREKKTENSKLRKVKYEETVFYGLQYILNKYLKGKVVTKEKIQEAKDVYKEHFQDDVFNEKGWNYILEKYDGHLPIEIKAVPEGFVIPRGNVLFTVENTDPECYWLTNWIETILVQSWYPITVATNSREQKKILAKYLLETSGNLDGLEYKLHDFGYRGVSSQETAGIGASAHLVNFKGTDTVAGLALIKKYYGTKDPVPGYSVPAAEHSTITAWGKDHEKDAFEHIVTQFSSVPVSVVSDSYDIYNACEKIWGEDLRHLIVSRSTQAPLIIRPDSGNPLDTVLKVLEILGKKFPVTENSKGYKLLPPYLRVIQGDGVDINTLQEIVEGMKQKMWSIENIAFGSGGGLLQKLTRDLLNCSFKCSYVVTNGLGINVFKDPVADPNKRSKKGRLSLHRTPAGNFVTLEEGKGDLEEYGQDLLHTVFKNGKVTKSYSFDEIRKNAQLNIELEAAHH
NAMPT (human, recombinant, C-terminally His-tagged), sequence (P43490 whole entry): as above

Compound | IC50 (PC3 cells) [nM] | IC50 (NAMPT) [nM] | IC50 [1] [nM]
Cn1nc(C(=O)O)cc1-c1ccc(NC(=O)C2CN(c3cccnn3)C2)cc1 [Example 911, 1-methyl-5-[4-({[1-(pyridazin-3-yl)azetidin-3-yl]carbonyl}amino)phenyl]-1H-pyrazole-3-carboxylic acid] | > 10000 | – | –
O=C(Nc1ccc(CC2CCN(C(=O)C3CC3)CC2)cc1)C1CN(c2cccnn2)C1 [Example 967, N-(4-{[1-(cyclopropylcarbonyl)piperidin-4-yl]methyl}phenyl)-1-(pyridazin-3-yl)azetidine-3-carboxamide] | 3.05 | – | –
Cc1ccc(N2CC[C@H](C(=O)Nc3ccc(C4CCN(C(=O)c5ccccc5)CC4)cc3)C2)nn1 [Example 893, (3S)—N-[4-(1-benzoylpiperidin-4-yl)phenyl]-1-(6-methylpyridazin-3-yl)pyrrolidine-3-carboxamide] | 681 | – | –
O=C(Nc1ccc(CC2CCN(C(=O)c3ccccc3)CC2)cc1)C1CN(c2cccnn2)C1 [Example 895, N-{4[(1-benzoylpiperidin-4-yl)methyl]phenyl}-1-(pyridazin-3-yl)azetidine-3-carboxamide] | 2.15 | – | –
CC(=O)N1CCC(Cc2ccc(NC(=O)C3CN(c4cccnn4)C3)cc2)CC1 [Example 902, N-{4-[(1-acetylpiperidin-4-yl)methyl]phenyl}-1-(pyridazin-3-yl)azetidine-3-carboxamide] | 6.45 | – | –
O=C(Nc1ccc(CC2CCN(C(=O)c3cccs3)CC2)cc1)C1CN(c2cccnn2)C1 [Example 947, 1-(pyridazin-3-yl)-N-(4-{[1-(thiophen-2-ylcarbonyl)piperidin-4-yl]methyl}phenyl)azetidine-3-carboxamide] | 2.56 | – | –
CCC1CCCCN1CCNC(=O)c1ccc(NC(=O)C2CN(c3cccnn3)C2)cc1 (centres unmarked) [Example 976, N-(4-{[2-(2-ethylpiperidin-1-yl)ethyl]carbamoyl}phenyl)-1-(pyridazin-3-yl)azetidine-3-carboxamide] | 61.2 | – | –
O=C(Nc1ccc(C2CCN(C(=O)CCC(F)(F)F)CC2)nc1)C1CN(c2cccnn2)C1 [Example 919, 1-(pyridazin-3-yl)-N-{6-[1-(4,4,4-trifluorobutanoyl)piperidin-4-yl]pyridin-3-yl}azetidine-3-carboxamide] | 51.9 | – | –
Cc1nnccc1N1CC(C(=O)Nc2ccc(C3CCN(C(=O)c4ccccc4)CC3)cc2)C1 [Example 908, N-[4-(1-benzoylpiperidin-4-yl)phenyl]-1-(3-methylpyridazin-4-yl)azetidine-3-carboxamide] | 92.5 | – | –
O=C(Nc1ccccc1)c1ccc(NC(=O)C2CN(c3cccnn3)C2)cc1 [Example 972, N-[4-(phenylcarbamoyl)phenyl]-1-(pyridazin-3-yl)azetidine-3-carboxamide] | 667 | – | –
O=C(Nc1ccc(CC2CCN(C(=O)C3CCCC3)CC2)cc1)C1CN(c2cccnn2)C1 [Example 928, N-(4-{[1-(cyclopentylcarbonyl)piperidin-4-yl]methyl}phenyl)-1-(pyridazin-3-yl)azetidine-3-carboxamide] | 2.56 | – | –
CSCC(=O)N1CCC(Cc2ccc(NC(=O)C3CN(c4cccnn4)C3)cc2)CC1 [Example 932, N-[4-({1-[(methylsulfanyl)acetyl]piperidin-4-yl}methyl)phenyl]-1-(pyridazin-3-yl)azetidine-3-carboxamide] | 5.82 | – | –
O=C(Nc1ccc(CC2CCN(C(=O)CCC(F)(F)F)CC2)cc1)C1CN(c2cccnn2)C1 [Example 900, 1-(pyridazin-3-yl)-N-(4-{[1-(4,4,4-trifluorobutanoyl)piperidin-4-yl]methyl}phenyl)azetidine-3-carboxamide] | 2.24 | – | –
O=C(Nc1ccc(CC2CCN(C(=O)c3ccno3)CC2)cc1)C1CN(c2cccnn2)C1 [Example 953, N-(4-{[1-(1,2-oxazol-5-ylcarbonyl)piperidin-4-yl]methyl}phenyl)-1-(pyridazin-3-yl)azetidine-3-carboxamide] | 3.34 | – | –
O=C(N[C@H]1CCN(c2cccnn2)C1)c1ccc(C2CCN(C(=O)CC3CC4CCC3C4)CC2)s1 (stereo partly drawn) [Example 1019, 5-[1-(bicyclo[2.2.1]hept-2-ylacetyl)piperidin-4-yl]-N-[(3S)-1-(pyridazin-3-yl)pyrrolidin-3-yl]thiophene-2-carboxamide] | 2460 | – | –
CC1(C(=O)N2CCC(Cc3ccc(NC(=O)C4CN(c5cccnn5)C4)cc3)CC2)CC1 [Example 904, N-[4-({1-[(1-methylcyclopropyl)carbonyl]piperidin-4-yl}methyl)phenyl]-1-(pyridazin-3-yl)azetidine-3-carboxamide] | 1.95 | – | –
CC1(C(=O)N2CCC(c3ccc(C(=O)N[C@H]4CCN(c5cccnn5)C4)s3)CC2)CC1 [Example 1016, 5-{1-[(1-methylcyclopropyl)carbonyl]piperidin-4-yl}-N-[(3S)-1-(pyridazin-3-yl)pyrrolidin-3-yl]thiophene-2-carboxamide] | 212 | – | –
O=C(Nc1ccc(CC2CCN(C(=O)c3ccsc3)CC2)cc1)C1CN(c2cccnn2)C1 [Example 942, 1-(pyridazin-3-yl)-N-(4-{[1-(thiophen-3-ylcarbonyl)piperidin-4-yl]methyl}phenyl)azetidine-3-carboxamide] | 2.76 | – | –
O=C(Nc1ccc(OC2CCN(C(=O)CC(F)(F)F)CC2)cc1)[C@H]1CCN(c2cccnc2)C1 [Example 18, (3S)-1-(pyridin-3-yl)-N-(4-{[1-(3,3,3-trifluoropropanoyl)piperidin-4-yl]oxy}phenyl)pyrrolidine-3-carboxamide] | – | 5.32 | 2740
O=C(Nc1ccc(OC2CCN(C(=O)CCC(F)(F)F)CC2)cc1)C1CN(c2cccnc2)C1 [Example 51, 1-(pyridin-3-yl)-N-(4-{[1-(4,4,4-trifluorobutanoyl)piperidin-4-yl]oxy}phenyl)azetidine-3-carboxamide] | – | 1.17 | 109
O=C(Nc1ccc(C2CCN(C(=O)c3ccccc3Cl)CC2)cc1)C1CN(c2cccnn2)C1 [Example 350, N-{4-[1-(2-chlorobenzoyl)piperidin-4-yl]phenyl}-1-(pyridazin-3-yl)azetidine-3-carboxamide] | – | 0.642 | 4.62
O=C(Nc1ccc(C2CCN(C(=O)c3ccoc3)CC2)cc1)C1CN(c2cccnc2)C1 [Example 104, N-{4-[1-(furan-3-ylcarbonyl)piperidin-4-yl]phenyl}-1-(pyridin-3-yl)azetidine-3-carboxamide] | – | 0.193 | 1.2
CCCCC(=O)N1CC(Oc2ccc(NC(=O)C3CN(c4ccnnc4)C3)cc2)C1 [Example 210, N-{4-[(1-pentanoylazetidin-3-yl)oxy]phenyl}-1-(pyridazin-4-yl)azetidine-3-carboxamide] | – | 38.3 | 31.7
CC(C)(O)C(=O)N1CCC(Oc2ccc(NC(=O)[C@H]3CCN(c4cccnc4)C3)cc2)CC1 [Example 17, (3S)-N-(4-{[1-(2-hydroxy-2-methylpropanoyl)piperidin-4-yl]oxy}phenyl)-1-(pyridin-3-yl)pyrrolidine-3-carboxamide] | – | 2.36 | 3510
Cc1ccc(C(=O)N2CCC(Oc3ccc(NC(=O)C4CN(c5ccnnc5)C4)cc3)CC2)s1 [Example 304, N-[4-({1-[(5-methylthiophen-2-yl)carbonyl]piperidin-4-yl}oxy)phenyl]-1-(pyridazin-4-yl)azetidine-3-carboxamide] | – | 24.2 | 55.4
